Laboratory results reported in US5175320A, “Fluorinated bile acid derivatives, processes for the preparation thereof and pharmaceutical compositions containing them” (Giuliani S.p.A., priority 1989, dated 1992).
≈ marks a conversion by molar mass, not a printed value. Entries after “also recorded” stand apart in the source; their conditions may differ.

What was measured:
[1] = lypophilicity by C/18 reverse phase HPLC; type: physicochemical; settings: for rK' C-18: rK' = relative values, C-18 reverse phase HPLC
Method: (§1) 6-FCDCA has been submitted to a series of physico-chemical determinations following a previously described protocol. Particularly, the lypophilicity, detergency, water solubility and pKa were measured.

[2] = water solubility (of the protonated forms); type: physicochemical
Method: as §1, with “measured. | rK' = relative values Water solubility of the protonated forms Data on water solubility are reported on the enclosed table 1.” for “measured.”

[3] = detergency, critical micellar concentration; type: physicochemical; settings: for CMC: Table 1
Method: as §1

pKa = type: physicochemical
Description: 6-FCDCA has been submitted to a series of physico-chemical determinations following a previously described protocol.

human stools = type: in vitro ADME

Row | Structure (SMILES) | rK' C-18 [1] | water solubility [2] [µmol] | S (water solubility) ([2]; protonated forms, Table 1) [µM] | CMC [3] [mmol/1] | water solubility compared with CDCA [2] | solubility ([2]; water) [µM] | critical micellar concentration [3] [mmol/L] | lypophilicity compared with natural analogues ([1]; C/18 reverse phase HPLC, result in words) | pKa (pKa) | protection of the 7-hydroxy group from oxidation and 7-dehydroxylation (human stools) | stability to intestinal bacteria compared with CDCA (human stools)
1 | C[C@H](CCC(=O)O)[C@H]1CC[C@H]2[C@@H]3[C@@H](O)C[C@@H]4C[C@H](O)CC[C@]4(C)[C@H]3CC[C@]12C [UDCA, ursodeoxycholic, reference compound] | 0.4 |  |  |  |  |  |  |  |  |  | 
2 | C[C@H](CCC(=O)O)[C@H]1CC[C@H]2[C@@H]3[C@H](O)C[C@@H]4C[C@H](O)CC[C@]4(C)[C@H]3CC[C@]12C [CDCA, chenodeoxycholic, reference compound] | 0.89 | 30 | 30 | 9 |  |  |  |  |  |  | 
3 | C[C@H](CCC(=O)O)[C@H]1CC[C@H]2[C@@H]3[C@H](O)C(F)[C@H]4C[C@H](O)CC[C@]4(C)[C@H]3CC[C@]12C (stereo partly drawn) [Example 6-FCDCA, 3α,7α-Dihydroxy-6-fluoro-5α-cholan-24-oic acid] | 0.6 |  |  | 10 | slightly higher than that of CDCA | 80 (≈ 32.8 µg/mL) | 10 | lower when compared with CDCA; also recorded: intermediate between CDCA and UDCA; also recorded: less lypohilic than CDCA | 5 | efficaciously protects the hydroxy group in 7-position to oxidation and 7-dehydroxylation | more stable to intestinal bacteria
